Test results published in PubChem BioAssay (NCI).
Values joined by “and” are separate entries in the source; they are usually repeats but may differ in a detail not shown here. Identical values can stand only once.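 Five concentrations, 48 hours, 96-well plates. GI50: concentration for 50% inhibition of growth. TGI marks complete inhibition of growth.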

Each compound was assayed on NCI/ADR-RES ovarian (assay: NCI-60 cell line screen, 48 h).

| SMILES | GI50 [µM] | TGI |
| --- | --- | --- |
| COc1cc2ncnc(Nc3ccc(C)c(O)c3)c2cc1OC | 16.4 | > 25 µM |
| COC(=O)C1=CNC=C(C(=O)OC)C1C1=CC(=O)C(C)=CC1=O | 16.5 | 31.2 µM |
| C=C1C(=O)O[C@H]2[C@H]1CC/C(COC(=O)C(=O)c1cn(Cc3ccccc3)c3ccccc13)=C\CC[C@@]1(C)O[C@@H]21 | 2.75 | 9.83 µM |
| Cc1cc(S(=O)(=O)Nc2nnc(-c3ccccc3)c(-c3ccccc3)n2)c(SCC(N)=O)cc1Cl | > 100 | > 100 µM |
| COC(C(O)CO)C(O)C(O)C(=O)NNc1ccccc1 (centres undefined) | – | > 100 µM |
| NS(=O)(=O)c1ccc(NC2(C(=O)O)CCCC2)cc1 | – | > 100 µM |
| O=C(O)C1OC(n2cc(F)c(=O)[nH]c2=O)CC1O (centres undefined) | – | > 100 µM |
| N=C1C(c2nc3ccccc3s2)=C(O)CN1c1cc(C(F)(F)F)ccc1Cl | 7.45 | 37.6 µM |
| CC(=O)CSCc1ccccn1 | – | > 100 µM |
| COc1ccccc1CNCCCN1C(=O)c2ccc3c4c(ccc(c24)C1=O)C(=O)N(CCCOCCCCOCCCN)C3=O | 1.46 | 4.37 µM |
| CCOC(=O)[C@@H](N)CCC(=O)N[C@@H](CSCc1ccccc1)C(=O)N[C@@H](C(=O)OCC)c1ccccc1 | > 100 | > 100 µM |
| COc1ccc(Nc2c3ccccc3nc3occc23)cc1 | 0.921 | > 36.8 µM |
| COc1cc(/C=C/c2cc(/C=C/c3ccc(O)c(OC)c3)n(C(=O)Nc3ccc(F)c(Cl)c3)n2)ccc1O | 0.126 | 3.09 µM |
| CCCCCCCC/C=C/CCCCCCCC(=O)OC[C@H]1O[C@@H](n2ccc(N)nc2=O)C(F)(F)[C@@H]1O | < 0.0217 | > 100 µM |
| NS(=O)(=O)c1ccc(N=Nc2c(O)[nH]c3ccc(-c4cnco4)cc23)cc1 | > 25 | > 25 µM |
| COc1cc2c3c(n(CCCNC(=O)OCC4c5ccccc5-c5ccccc54)c(=O)c2cc1OC)-c1cc2c(cc1/C3=C\CCNC(=O)OCC1c3ccccc3-c3ccccc31)OCO2 | > 38 | > 50 µM |
| N#C/C(=C1C=C(Br)/C(=N\O)C=C\1Cl)c1cccc2ccccc12 | – | > 100 µM |
| COc1cc2nc3cc([N+](=O)[O-])ccc3c(NCCCNCCO)c2cc1OC | 31.4 | > 100 µM |
| COC(=O)[C@@H](C)CNS(=O)(=O)N(c1cc(C(F)(F)F)cc(C(F)(F)F)c1)C1CCN(Cc2ccc(F)cc2)CC1 | 10.7 | 23.4 µM |
| C=C1C(=O)O[C@@H]2/C=C(\C)CC/C=C(/COC(C)=O)C[C@@H](OC(C)=O)[C@@H]12 | – | 57.8 µM |
| COC(=O)[C@H](C)NC(=O)NC(=O)NC(=O)CI | 19.1 | 43 µM |
| COc1cc2c(c(OC)c1OC)-c1ccc(OC)c(=O)cc1[C@@H](NC(=O)c1ccccc1)CC2 | – | 1.15 µM and 1.05 µM |
| CN1C/C=C\CCOc2cccc(c2)-c2ccnc(n2)Nc2cccc(c2)C1 | 0.0654 | 1.45 µM |
| C[C@@]12CC=C3c4nc(Nc5cccc(O)c5)sc4CC[C@]3(C)[C@H]1CC[C@]1(C)C(=O)CC[C@@H]21 | 3.1 | > 100 µM |
| CN1C(=O)c2cccc3cc([N+](=O)[O-])cc(c23)C1=O | – | > 10 µM |
| Oc1ccccc1C(Sc1nc2ccccc2s1)Sc1nc2ccccc2s1 | – | > 100 µM |
| COC1=C(C)C(=O)c2c(c(COC(N)=O)c3n2CC2C3N2C)C1=O (centres undefined) | – | 0.336 µM |

What follows are compounds tested on SNB-19 CNS (assay: NCI-60 cell line screen, 48 h).

| SMILES | GI50 | TGI |
| --- | --- | --- |
| O=C(N/N=C/c1ccc(Cl)cc1)c1ccc(C(F)(F)F)nc1Nc1cccc(C(F)(F)F)c1 | 2.61 µM | 13 µM |
| COc1cc2ncnc(Nc3ccc(C)c(O)c3)c2cc1OC | > 25 µM | > 25 µM |
| COC(=O)C1=CNC=C(C(=O)OC)C1C1=CC(=O)C(C)=CC1=O | 18.5 µM | 36.7 µM |
| C=C1C(=O)O[C@H]2[C@H]1CC/C(COC(=O)C(=O)c1cn(Cc3ccccc3)c3ccccc13)=C\CC[C@@]1(C)O[C@@H]21 | 7.21 µM | 25.9 µM |
| Cc1cc(S(=O)(=O)Nc2nnc(-c3ccccc3)c(-c3ccccc3)n2)c(SCC(N)=O)cc1Cl | 35.3 µM | > 100 µM |
| COC(C(O)CO)C(O)C(O)C(=O)NNc1ccccc1 (centres undefined) | – | > 100 µM |
| NS(=O)(=O)c1ccc(NC2(C(=O)O)CCCC2)cc1 | – | > 100 µM |
| O=C(O)C1OC(n2cc(F)c(=O)[nH]c2=O)CC1O (centres undefined) | – | > 100 µM |
| N=C1C(c2nc3ccccc3s2)=C(O)CN1c1cc(C(F)(F)F)ccc1Cl | 60.6 µM | > 100 µM |
| CC(=O)CSCc1ccccn1 | – | > 100 µM |
| COc1ccccc1CNCCCN1C(=O)c2ccc3c4c(ccc(c24)C1=O)C(=O)N(CCCOCCCCOCCCN)C3=O | 1.71 µM | 4.87 µM |
| CCOC(=O)[C@@H](N)CCC(=O)N[C@@H](CSCc1ccccc1)C(=O)N[C@@H](C(=O)OCC)c1ccccc1 | 18.8 µM | 38 µM |
| COc1ccc(Nc2c3ccccc3nc3occc23)cc1 | 2.87 µM | > 48.5 µM |
| COc1cc(/C=C/c2cc(/C=C/c3ccc(O)c(OC)c3)n(C(=O)Nc3ccc(F)c(Cl)c3)n2)ccc1O | 0.514 µM | 2.1 µM |
| CCCCCCCC/C=C/CCCCCCCC(=O)OC[C@H]1O[C@@H](n2ccc(N)nc2=O)C(F)(F)[C@@H]1O | < 0.0419 µM | > 43.5 µM |
| NS(=O)(=O)c1ccc(N=Nc2c(O)[nH]c3ccc(-c4cnco4)cc23)cc1 | > 25 µM | > 25 µM |
| COc1cc2c3c(n(CCCNC(=O)OCC4c5ccccc5-c5ccccc54)c(=O)c2cc1OC)-c1cc2c(cc1/C3=C\CCNC(=O)OCC1c3ccccc3-c3ccccc31)OCO2 | > 29.6 µM | > 50 µM |
| N#C/C(=C1C=C(Br)/C(=N\O)C=C\1Cl)c1cccc2ccccc12 | – | 32.1 µM |
| COc1cc2nc3cc([N+](=O)[O-])ccc3c(NCCCNCCO)c2cc1OC | 0.137 µM | 0.495 µM |
| COC(=O)[C@@H](C)CNS(=O)(=O)N(c1cc(C(F)(F)F)cc(C(F)(F)F)c1)C1CCN(Cc2ccc(F)cc2)CC1 | 13 µM | 25.8 µM |
| C=C1C(=O)O[C@@H]2/C=C(\C)CC/C=C(/COC(C)=O)C[C@@H](OC(C)=O)[C@@H]12 | – | > 95.9 µM |
| COC(=O)[C@H](C)NC(=O)NC(=O)NC(=O)CI | 19.8 µM | 43.1 µM |
| COc1cc2c(c(OC)c1OC)-c1ccc(OC)c(=O)cc1[C@@H](NC(=O)c1ccccc1)CC2 | < 0.003 µM and 0.0157 µM | 30 µM and 46.3 µM |
| CN1C/C=C\CCOc2cccc(c2)-c2ccnc(n2)Nc2cccc(c2)C1 | 0.057 µM | 4.25 µM |
| C[C@@]12CC=C3c4nc(Nc5cccc(O)c5)sc4CC[C@]3(C)[C@H]1CC[C@]1(C)C(=O)CC[C@@H]21 | 3.88 µM | 55.7 µM |
| CN1C(=O)c2cccc3cc([N+](=O)[O-])cc(c23)C1=O | – | > 10 µM |
| Oc1ccccc1C(Sc1nc2ccccc2s1)Sc1nc2ccccc2s1 | – | > 100 µM |
| COC1=C(C)C(=O)c2c(c(COC(N)=O)c3n2CC2C3N2C)C1=O (centres undefined) | – | 0.256 µM |

The compounds below were run on SR leukemia (assay: NCI-60 cell line screen, 48 h).

| SMILES | GI50 [µM] | TGI [µM] |
| --- | --- | --- |
| O=C(N/N=C/c1ccc(Cl)cc1)c1ccc(C(F)(F)F)nc1Nc1cccc(C(F)(F)F)c1 | 0.879 | 5.71 |
| COc1cc2ncnc(Nc3ccc(C)c(O)c3)c2cc1OC | > 25 | > 25 |
| COC(=O)C1=CNC=C(C(=O)OC)C1C1=CC(=O)C(C)=CC1=O | 9.37 | 43.5 |
| C=C1C(=O)O[C@H]2[C@H]1CC/C(COC(=O)C(=O)c1cn(Cc3ccccc3)c3ccccc13)=C\CC[C@@]1(C)O[C@@H]21 | 1 | > 100 |
| Cc1cc(S(=O)(=O)Nc2nnc(-c3ccccc3)c(-c3ccccc3)n2)c(SCC(N)=O)cc1Cl | 24.1 | 47.6 |
| COC(C(O)CO)C(O)C(O)C(=O)NNc1ccccc1 (centres undefined) | – | > 100 |
| NS(=O)(=O)c1ccc(NC2(C(=O)O)CCCC2)cc1 | – | > 100 |
| O=C(O)C1OC(n2cc(F)c(=O)[nH]c2=O)CC1O (centres undefined) | – | > 100 |
| N=C1C(c2nc3ccccc3s2)=C(O)CN1c1cc(C(F)(F)F)ccc1Cl | 1.81 | 4.91 |
| CC(=O)CSCc1ccccn1 | – | 56.1 |
| COc1ccccc1CNCCCN1C(=O)c2ccc3c4c(ccc(c24)C1=O)C(=O)N(CCCOCCCCOCCCN)C3=O | 0.348 | 3.87 |
| CCOC(=O)[C@@H](N)CCC(=O)N[C@@H](CSCc1ccccc1)C(=O)N[C@@H](C(=O)OCC)c1ccccc1 | 9.97 | 33.2 |
| COc1ccc(Nc2c3ccccc3nc3occc23)cc1 | > 100 | > 100 |
| COc1cc(/C=C/c2cc(/C=C/c3ccc(O)c(OC)c3)n(C(=O)Nc3ccc(F)c(Cl)c3)n2)ccc1O | 0.0415 | – |
